Measured values published in patent US20250134891A1, “USE OF SOS1 INHIBITORS WITH MTOR INHIBITORS TO TREAT CANCERS” (Revolution Medicines, Inc., priority 2021, published 2025).

Key:
[1] = system: murine pancreatic ductal adenocarcinoma PAN02 PTPN11^G503V; experiment: Tumor growth in vivo, PAN02 PTPN11^G503V syngeneic model; design: species or system mouse; details: single agent
Protocol: The combinatorial effects of Compound SOS1-(C) with RM-006 (also known as RMC-6272) on tumor cell growth in vivo were evaluated in the murine pancreatic ductal adenocarcinoma PAN02 PTPN11^G503V syngeneic model using female C57BL/6J mice (6-7 weeks old). Mice were implanted with PAN02 tumor cells in PBS (5×10^6 cells/mouse) subcutaneously in the flank. Once tumors reached an average size of ˜145 mm^3, mice were randomized to treatment groups to start the administration of test articles or control. SOS1-(C) treatment was administered daily by oral gavage and RM-006 was administered weekly by intra-peritoneal injection. Body weight and tumor volumes (using calipers) were measured twice weekly until study endpoint. Regressions (R) are defined as decrease of 10% or more from initial tumor volume.

[2] = system: LN229 human glioblastoma PTPN11^A72S/WT; experiment: Tumor growth in vivo, LN229 PTPN11^A72S/WT glioblastoma CDX model; details: single agent; 3 mg/kg IP weekly; athymic nude mice
Protocol: The combinatorial effects of Compound SOS1-(C) with RM-006 (also known as RMC-6272) on tumor cell growth in a human model of PTPN11-mutant glioblastoma, LN229 PTPN11^A72S/WT. 6-7 week athymic nude mice were implanted with LN229 in 50% matrigel (10×10^6 cells/mouse) subcutaneously in the flank. Once tumors reached an average size of 200 mm^3, mice were randomized into treatment groups (n=10/group) to start the administration of test articles or control. SOS1-(C) treatment was administered daily by oral gavage and RM-006 was administered weekly by intra-peritoneal injection. Body weight and tumor volume (using calipers) was measured twice weekly until study endpoint.

CO[C@H]1C[C@@H]2CC[C@@H](C)[C@@](O)(O2)C(=O)C(=O)N2CCCC[C@H]2C(=O)O[C@H]([C@H](C)C[C@@H]2CC[C@@H](OC(=O)NCCOCCOCCOCCOCCOCCOCCOCCOCCC(=O)NCCS(=O)(=O)c3ccc(C(=O)N4CCOc5ccc(-c6ccc(N)nc6)cc5C4)c(C)c3F)[C@H](OC)C2)C[C@@H](O)[C@H](C)/C=C(\C)[C@@H](O)[C@@H](OC)C(=O)[C@H](C)C[C@H](C)/C=C/C=CC=C1C [RM-006]
tumor growth inhibition (TGI) ([1]; 3 mg/kg IP weekly, female C57BL/6J mice): 11%
regressions (decrease of 10% or more from initial tumor volume) ([1]; any timepoint in this study): did not induce regressions
tumor growth inhibition (TGI) [2]: 72%
